The results in this text go back to patent US11578055B2, “Triazacyclododecansulfonamide (“TCD”)-based protein secretion inhibitors” (KEZAR LIFE SCIENCES, priority 2018, dated 2023).

A short description of series [1]: In Vitro Microsome Stability Assay (mouse). It is filed as in vitro ADME. Particulars: mouse liver microsomes, 30 min w/ NADPH. In outline: (§1)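 Species liver microsomes in potassium phosphate buffer were preincubated at 37 °C for 3–5 min with test compound (added from 0.25 mM DMSO stock), then started with NADPH. Samples at 0 and 30 min were quenched with acetonitrile containing internal standard and analysed by LC-MS/MS; % remaining at 30 min used analyte/IS AUC ratios relative to t=0.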
In general terms: Microsomes from liver hold many membrane-bound enzymes, among them those of drug oxidation.

For series [2], the system named is full length IL-2 (amino acids 1-153) fused to Gaussia Luciferase. Kind of series: Dox Induced IL2-FL-Gluc Assay. It is filed as cell-based. Particulars: 24 hr, Dox inducible, 293FRT/TO cells; read-out: 24 hr Dox Inducible IL2FLGluc 293FRT/TO: Mean IC50. In outline: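 Compounds in DMSO/media with doxycycline were added to cells plated the previous day and incubated at 37° C, 5% CO2. Cells: stable Flp-In 293 T-REx line, Dox-regulated expression of IL-2 (aa 1-153) fused at its C-terminus to Gaussia luciferase.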

Series [3] is described as follows: In Vitro Microsome Stability Assay (rat). It is filed as in vitro ADME. To be noted: rat liver microsomes, 30 min w/ NADPH. The procedure, abridged: as §1
In series [4] the test system is multiple myeloma cell line NCl-H929. Briefly: H929 Cell Viability Assay. To be noted: Homo sapiens, NCI-H929, 48 h, H929, Celltiter-Glo. It is filed as cell-based, human. In outline: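 Viability was determined by CellTiter-Glo luminescence after a 48 h, 37 °C exposure of NCI-H929 cells to serial compound dilutions in medium containing 10% FBS. Where stereochemistry is not shown, values refer to a mix of stereoisomers.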

The subject of series [5] is PD1 signal sequence plus 10 amino acids fused to Gaussia Luciferase (PD1-ss+10aa/Gaussia Luciferase). Kind of series: Dox Induced PD1-ss-Gluc Assay. To be noted: 24 hr, Dox inducible, 293FRT/TO cells; read-out: 24 hr Dox Inducible PD1ssGluc 293FRT/TO: Mean IC50. It is filed as cell-based. In outline: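 Compound dilutions in DMSO/media containing doxycycline were applied to a stable, inducible 293 T-REx line carrying the luciferase fusion, then incubated at 37 °C, 5% CO2. Where stereochemistry is not drawn, values relate to isomer mixtures.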

The test system of series [6] is multiple myeloma cell line U266B1. Briefly: U266 Cell Viability Assay. It is filed as cell-based, human. To be noted: Homo sapiens, U-266; 48 hr, U266, Celltiter-Glo. The procedure, abridged: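 Viability was measured by CellTiter-Glo luminescence after 48 h compound exposure at 37° C, 5% CO2. The cells were U266B1 multiple myeloma cells grown in RPMI 1640 plus 10% FBS. Where stereochemistry is not shown, values apply to the stereoisomer mixture.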
(In general: ATP-based viability assays read luminescence as a measure of living cells.)

The test system of series [7] is full length TNFα (amino acids 1-233) fused to Gaussia Luciferase. Kind of series: Dox Induced TNFα-FL-Gluc Assay. It is filed as cell-based. Particulars: 24 hr, Dox inducible, 293FRT/TO cells; read-out: 24 hr Dox Inducible TNFaFLGluc 293FRT/TO: Mean IC50. In outline: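 Compounds diluted in DMSO/medium with doxycycline were incubated at 37° C, 5% CO2 with 293 T-REx cells stably carrying a Tet-regulated TNFα(1-233)-Gaussia luciferase construct. Data for structures drawn without stereochemistry refer to stereoisomer mixtures.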

Series [8] can be described thus: In Vitro Microsome Stability Assay (monkey). To be noted: monkey liver microsomes, 30 min w/ NADPH. The class given is in vitro ADME. In outline:
as §1

The test system of series [9] is HER3 signal sequence plus 4 amino acids fused to Gaussia Luciferase (HER3-ss+4aa/Gaussia Luciferase). Briefly: Dox Induced HER3-ss-Gluc Assay. It is filed as cell-based. To be noted: 24 hr, doxycycline induced, Flp-In 293 T-REx cells; read-out: 24 hr Dox Inducible Her3(ss + 4) Gluc 293FRT/TO: Mean 1050. In outline: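 Stable Flp-In 293 T-REx line expressing HER3 signal sequence+4aa/Gaussia luciferase under doxycycline-inducible control. Cells plated the day before; compound dilutions added in doxycycline-containing medium and incubated at 37° C, 5% CO2.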

A short description of series [10]: In Vitro Microsome Stability Assay (human). It is filed as in vitro ADME. To be noted: human liver microsomes, 30 min w/ NADPH. In outline: as §1

SMILES strings stand for the structures.

Take `C[C@H]1CN(S(=O)(=O)c2ccc(C(=O)N(C)C)cc2)CCCN(CC2CCCCC2)CCCN(S(=O)(=O)N2CCc3cc(Cl)ccc3C2)C1` [A179, 4-{[(3S)-5-[(6-chloro-1,2,3,4-tetrahydroisoquinolin-2-yl)sulfonyl]-9-(cyclohexylmethyl)-3-methyl-1,5,9-triazacyclododecan-1-yl]sulfonyl}-N,N-dimethylbenzamide]: the “Liver Microsome Stability-% Left after 30 min w/ NADPH (%) Mouse” value (shortened to “Liver Microsome Stability-% Left … (%) Mouse”) in [1] came to 0.5%. Besides, the IC50 in [2] turned out to be 72.6 nM; in series [5], 270 nM; in [7], 3250 nM; in series [9], 400 nM. In series [3], the “Liver Microsome Stability-% Left after 30 min w/ NADPH (%) Rat” value (“Liver Microsome Stability-% Left … (%) Rat” below) is recorded as 0.18%. Moreover, the EC50 was 11300 nM in [4] and more than 25000 nM in [6]. Moreover, in [8], the “Liver Microsome Stability-% Left after 30 min w/ NADPH (%) Monkey” value (“Liver Microsome Stability-% Left … (%) Monkey” below) is recorded as 0.26%. Moreover, the “Liver Microsome Stability-% Left after 30 min w/ NADPH (%) Human” value (shortened to “Liver Microsome Stability-% Left … (%) Human”) in series [10] amounted to 0.04%.
`C[C@H]1CN(S(=O)(=O)c2ccc(N(C)C)cc2)CCCN([C@H](C)C2CCCCC2)CCCN(S(=O)(=O)N2CCc3cc(Cl)ccc3C2)C1` [A191, 4-{[(3S)-5-[(6-chloro-1,2,3,4-tetrahydroisoquinolin-2-yl)sulfonyl]-9-[(1 R)-1-cyclohexylethyl]-3-methyl-1,5,9-triazacyclododecan-1-yl]sulfonyl}-N,N-dimethylaniline]: the “Liver Microsome Stability-% Left … (%) Mouse” value in [1] came out at 55.3%. The IC50 in series [2] was 145 nM; in [5], 57.6 nM; in [7], 1100 nM; in [9], 117 nM. Moreover, the “Liver Microsome Stability-% Left … (%) Rat” value in series [3] turned out to be 65.0%. Further, the EC50 is 6730 nM in series [4] and more than 25000 nM in [6]. Also, the “Liver Microsome Stability-% Left … (%) Monkey” value in [8] stood at 68.3%. Further, the “Liver Microsome Stability-% Left … (%) Human” value in [10] is listed as 48.6%.
Turning to `COc1cccc([C@@H]2CCCN(S(=O)(=O)N3CCCN(CC4CCCCC4)CCCN(S(=O)(=O)c4ccc(N(C)C)cc4)C[C@H](C)C3)C2)c1` [A209], in [1], the “Liver Microsome Stability-% Left … (%) Mouse” value amounted to 31.8%. The IC50 in series [2] was 673 nM; in [5], 327 nM; in series [7] it was more than 25000 nM; in series [9], 498 nM. Besides, the “Liver Microsome Stability-% Left … (%) Rat” value in [3] is reported as 44.7%. In addition, the EC50 in series [4] and in [6] was more than 25000 nM throughout. Moreover, the “Liver Microsome Stability-% Left … (%) Monkey” value in series [8] amounted to 45.7%. In addition, in [10], the “Liver Microsome Stability-% Left … (%) Human” value is 22.6%.
For `C[C@H]1CN(S(=O)(=O)c2ccc(N(C)C)cc2)CCCN([C@@H](C)c2ccccc2)CCCN(S(=O)(=O)N2CCc3ccccc3C2)C1` [A205, N,N-dimethyl-4-{[(3S)-3-methyl-9-[(1 S)-1-phenylethyl]-5-(1,2,3,4-tetrahydroisoquinoline-2-sulfonyl)-1,5,9-triazacyclododecan-1-yl]sulfonyl}aniline], in series [1], the “Liver Microsome Stability-% Left … (%) Mouse” value is recorded as 38.9%. The IC50 in series [2] was determined as 305 nM; in series [5], 129 nM; in [7], 1810 nM; in series [9], 230 nM. The “Liver Microsome Stability-% Left … (%) Rat” value in series [3] is 38.7%. The EC50 was 2360 nM in [4] and more than 25000 nM in series [6]. Besides, in series [8], the “Liver Microsome Stability-% Left … (%) Monkey” value was determined as 31.7%. The “Liver Microsome Stability-% Left … (%) Human” value in series [10] was determined as 37.2%.
For the molecule `C[C@H]1CN(S(=O)(=O)c2ccc(N(C)C)cc2)CCCN(CC2CCCCC2)CCCN(S(=O)(=O)N(C)Cc2ccccc2)C1` [A184, (3S)-N-benzyl-9-(cyclohexylmethyl)-5-[4-(dimethylamino)benzenesulfonyl]-N,3-dimethyl-1,5,9-triazacyclododecane-1-sulfonamide], the “Liver Microsome Stability-% Left … (%) Mouse” value in [1] amounted to 5.64%. Also, the IC50 in [2] worked out at 233 nM; in [5] it was 100 nM; in series [7] it was 1080 nM; in series [9], 156 nM. Besides, in [3], the “Liver Microsome Stability-% Left … (%) Rat” value is recorded as 7.47%. Moreover, the EC50 was 6920 nM in series [4] and more than 25000 nM in series [6]. Also, in series [8], the “Liver Microsome Stability-% Left … (%) Monkey” value is recorded as 1.23%. Also, in [10], the “Liver Microsome Stability-% Left … (%) Human” value turned out to be 2.56%.
For the molecule `COc1cc(F)cc(N2[C@H](C)CN(S(=O)(=O)N3CCCN(CC4CCCCC4)CCCN(S(=O)(=O)c4ccc(N(C)C)cc4)C[C@H](C)C3)C[C@H]2C)c1` [A200], in series [1], the “Liver Microsome Stability-% Left … (%) Mouse” value amounted to 71.9%. Also, the IC50 in [2] was 27.9 nM; in [5], 11.2 nM; in series [7], 285 nM; in [9] it was 29.1 nM. Moreover, the “Liver Microsome Stability-% Left … (%) Rat” value in [3] came out at 83.1%. The EC50 in series [4] is 436 nM; in [6], more than 25000 nM. The “Liver Microsome Stability-% Left … (%) Monkey” value in series [8] came out at 73.9%. The “Liver Microsome Stability-% Left … (%) Human” value in [10] amounted to 78.1%.
Take `C[C@H]1CN(S(=O)(=O)c2ccc(N(C)C)cc2)CCCN(Cc2ccon2)CCCN(S(=O)(=O)N2CCc3cc(Cl)ccc3C2)C1` [A124, 4-{[(3S)-5-[(6-chloro-1,2,3,4-tetrahydroisoquinolin-2-yl)sulfonyl]-3-methyl-9-[(1,2-oxazol-3-yl)methyl]-1,5,9-triazacyclododecan-1-yl]sulfonyl}-N,N-dimethylaniline]: the “Liver Microsome Stability-% Left … (%) Mouse” value in series [1] is reported as 1.01%. For the same molecule, the IC50 is 802 nM in series [2], 607 nM in [5], more than 25000 nM in [7] and 913 nM in [9]. Besides, in series [3], the “Liver Microsome Stability-% Left … (%) Rat” value came to 1.25%. Moreover, the EC50 in series [4] and in series [6] was more than 25000 nM in each case. In addition, the “Liver Microsome Stability-% Left … (%) Monkey” value in series [8] is 1.91%. Also, the “Liver Microsome Stability-% Left … (%) Human” value in series [10] turned out to be 18.9%.
Take `CC(=O)N(C)c1ccc(CNS(=O)(=O)N2CCCN(CC3CCCCC3)CCCN(S(=O)(=O)c3ccc(N(C)C)cc3)C[C@H](C)C2)cc1` [A192, N-{4-[({[(3S)-9-(cyclohexylmethyl)-5-[4-(dimethylamino)benzenesulfonyl]-3-methyl-1,5,9-triazacyclododecan-1-yl]sulfonyl}amino)methyl]phenyl}-N-methylacetamide]: the “Liver Microsome Stability-% Left … (%) Mouse” value in series [1] amounted to 0.18%. In addition, the IC50 in series [2] is 2330 nM; in [5] it was 1150 nM; in series [7] it was more than 25000 nM; in series [9], 1710 nM. Further, the “Liver Microsome Stability-% Left … (%) Rat” value in series [3] is recorded as 0.08%. The EC50 in [4] was 9360 nM; in series [6] it was more than 25000 nM. The “Liver Microsome Stability-% Left … (%) Monkey” value in [8] was determined as 0.10%. Moreover, the “Liver Microsome Stability-% Left … (%) Human” value in [10] is recorded as 0.02%.
Turning to `COc1cc(F)ccc1N1CCN(S(=O)(=O)N2CCCN([C@@H](C)C3CCCCC3)CCCN(S(=O)(=O)c3ccc(N(C)C)cc3)C[C@H](C)C2)C[C@H]1C` [A207, 4-{[(3S)-9-[(1 S)-1-cyclohexylethyl]-5-{[(3 R)-4-(4-fluoro-2-methoxyphenyl)-3-methylpiperazin-1-yl]sulfonyl}-3-methyl-1,5,9-triazacyclododecan-1-yl]sulfonyl}-N,N-dimethylaniline], in series [1], the “Liver Microsome Stability-% Left … (%) Mouse” value came out at 84.3%. Also, the IC50 in [2] amounted to 10.6 nM; in [5], 7.93 nM; in series [7] it was 221 nM; in series [9], 18 nM. Moreover, the “Liver Microsome Stability-% Left … (%) Rat” value in series [3] came to 98.8%. In addition, the results for the EC50 in series [4] and in series [6] were 106 nM and more than 25000 nM, respectively. The “Liver Microsome Stability-% Left … (%) Monkey” value in series [8] is given as 63.0%. For the same molecule, in [10], the “Liver Microsome Stability-% Left … (%) Human” value came out at 62.7%.

Broadly, the EC50 is the concentration that produces a half-maximal response.
